Test results published in patent publication US11279733B2, “Peptide antibiotics” (priority 2017, dated 2022).
≈ marks a conversion by molar mass, not a printed value. Positions of bridges follow the written chain, without caps; N, C: chain ends. Non-standard residues stand in square brackets, D forms with d. Residues, ends and D or L forms follow the SMILES beside them. *: point of attachment. Decanoyl(3R-OH) = CCCCCCC[C@@H](O)CC(=O)*; dDab = NCC[C@@H](N)C(=O)O; Orn = NCCC[C@H](N)C(=O)O; Dab = NCC[C@H](N)C(=O)O; Dap = NC[C@H](N)C(=O)O

What was measured:
[1] = In vitro nephrotoxicity, GGT release from primary human kidney cells; assay type: cell-based; details: pH 7.4
Description: (§1) hPT cells were derived from whole human kidneys procured by the International Institute for the Advancement of Medicine (Edison, N.J., USA). All tissue was scored by a pathologist as normal (i.e., derived from non-cancerous, non-diseased tissue). Cell isolation procedures were based on those originally described by Todd et al. (1996) and modified (Cummings and Lash, 2000; Cummings et al., 2000) with use of sterile conditions (i.e., all instruments and glassware were autoclaved and all buffers were filtered through a 0.2-μm pore-size filter). Renal cortex and outer stripe were cut into slices, washed with sterile PBS, minced, and the pieces were placed in a trypsinization flask filled with 300 ml of sterile, filtered Hanks' buffer, containing 25 mM NaHCO3, 25 mM HEPES, pH 7.4, 0.5 mM EGTA, 0.2% (w/v) bovine serum albumin, 50 μg/ml gentamicin, 1.3 mg/mL collagenase, and 0.59 mg/ml CaCl2), which was filtered prior to use. Whole kidneys were perfused with Wisconsin medium and kept on ice until they arrived at the laboratory, which was usually within 24 h of removal from the donor.
(§2) All buffers were continuously bubbled with 95% O2/5% CO2 and were maintained at 37° C. Minced cortical pieces from whole kidneys were subjected to collagenase digestion for 60 min, after which the supernatant was filtered through a 70-μm mesh filter to remove tissue fragments, centrifuged at 150×g for 7 min, and the pellet resuspended in Dulbecco's Modified Eagle's Medium: Ham's F12 Medium (DMEM/F12; 1/1). Approximately 5 to 7×10^6 cells were obtained per 1 g of human kidney cortical tissue.
(§3) hPT cells were resuspended in 2 mL of DMEM/F12 and diluted to 500 mL with cell culture medium, which was serum-free and hormonally-defined. Composition of this supplemented medium was based on earlier work establishing optimal conditions for primary culture of rat PT cells (Lash et al., 1995). Basal medium was a 1:1 mixture of DMEM/F12. […] Cells were seeded in a volume of 0.5 ml at a density of 50-100 μg protein per cm^2 (0.5-1.0×10^6 cells/ml) on 24-well plates. Cultures were grown at 37° C. in a humidified incubator under an atmosphere of 95% air/5% CO2 at pH 7.4. Cultures were grown to approximately 80%-90% confluence (generally 5-6 days) prior to experiments. Cells were harvested by either scraping the flasks with a Teflon scraper or by brief incubation with Cellstripper (Cellgro, Herndon, Va., USA) (in Ca^2+- and Mg^2+-free Hanks' buffer).
Release of gamm-glutanyltransferase was assessed according to Orlowski, M., Meister, A. 1963. γ-Glutamyl-p-nitroanilide: A new convenient substrate for determination and study of L- and D-γ-glutamyltranspeptidase activities (Biochim. Biophys. Acta 73: 679-681.)
A 2.5 mM substrate Solution was prepared from 67 mg γ-glutamyl-p-nitroanilide+264 mg glycylglycine in 100 mL of 0.05 M Tris, pH 8.2 (50 mM Tris, pH 8.2: 605 mg Tris/HCl per 100 mL).
For the assay in 96-well plates, 6-μL of sample and 0.3 mL substrate solution were added to each well. The absorbance was measured at 410 nm for the appearance of product, p-nitroanilide (molar extinction=8800 M^−1 cm^−1).

[2] = In vitro nephrotoxicity, LDH release from primary human kidney cells; assay type: cell-based; details: pH 7.4
Description: as §1, §2, §3

Neisseria gonorrhoeae = test: MIC determination, Neisseria gonorrhoeae; assay type: cell-based; details: strain FA19 ATCC BAA-1838
Method: Bacteria were either obtained from American Type Culture Collection (ATCC; Manassas, Va., USA) or independent academic clinical isolate collections, as listed in Table 18 below. Bacteria were cultured in Nutrient broth (NB; Bacto Laboratories, catalogue No. 234000) or Mueller Hinton broth (MHB; Bacto Laboratories, catalogue No. 211443) at 37° C. overnight with shaking (˜180 RPM). A sample of each culture was then diluted 50-fold in fresh MHB and incubated at 37° C. for 2-3 h with shaking (˜180 RPM). Compound stock solutions were prepared as 0.64 mg/mL or 2.56 mg/mL in water. The compounds, at twice the final desired concentration, were serially diluted 2-fold across the wells of 96-well plates (Polystyrene, Corning, catalogue No. 3370). Mid-log phase bacterial cultures (after 2-3 h incubation) were diluted to a final concentration of 1×10^6 colony forming units (CFU)/mL, and 50 μL was added to each well giving a final cell density of 5×10^5 and a compound concentration range of 32 μg/mL to 0.015 μg/mL (128-0.06 μg/mL against P. aeruginosa PA9704).

P. aeruginosa ATCC 27853 = details: ATCC 27853
Outline: (§4)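 Mid-log cultures grown in Mueller Hinton broth at 37° C were tested by 2-fold broth microdilution at 5×10^5 CFU/mL final. Compounds were dissolved in water and tested over a final range of 32 to 0.015 μg/mL.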

A. baumannii GN_093 PmxR = details: GN 093 PmxR
Outline: as §4

E. coli ATCC 25922 = details: ATCC 25922
Outline: as §4

[3] = test system: K. pneumoniae GN_102 PmxR; details: GN 102 PmxR
Outline: as §4

[4] = test system: K. pneumoniae ATCC 700603, MDR; details: ATCC 700603
Outline: as §4

[5] = test system: K. pneumoniae ATCC BAA-2146, NDM-1 pos; details: ATCC BAA-2146
Outline: as §4

[6] = test system: S. aureus ATCC 25923, MSSA; details: ATCC 25923
Outline: as §4

[7] = test system: P. aeruginosa GN_105, PmxR; details: GN 105, PmxR
Outline: as §4

[8] = test system: K. pneumoniae GN_106, PmxR; details: GN 106, PmxR
Outline: as §4

A. baumannii ATCC 19606 = details: ATCC 19606
Outline: as §4

[9] = test system: P. aeruginosa GN_043, PmxR; details: polymyxin-resistant
Outline: as §4

K. pneumoniae ATCC 13883 = details: ATCC 13883
Outline: as §4

in vitro = details: human
Outline: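 Cells (4000/well, pre-attached 24 h) then received 5 μM resazurin for 2 h, with fluorescence measured at ex 560/em 590.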

## CCCCCCC[C@@H](O)CC(=O)N[C@H](CCN)C(=O)N[C@H]1CCNC(=O)[C@H](CC(C)C)NC(=O)[C@H](CCCN)NC(=O)[C@H](CCN)NC(=O)[C@H](CC(C)C)NC(=O)[C@@H](Cc2ccccc2)NC(=O)[C@H](CCN)NC1=O [compound 988, 3(R)OH-nC9CO-D-Dab-cyc[L-Dab-L-Dab-D-Phe-L-Leu-L-Dab-L-Orn-L-Leu]] ({Decanoyl(3R-OH)}-[dDab][Dab][Dab][dF]L[Dab][Orn]L; lactam 2-C)
[1]
  CC50: > 128 mg/L
[2]
  CC50: 118 mg/L (≈ 111 µM)
Neisseria gonorrhoeae
  MIC N. gonorrhoeae FA19 ATCC BAA-1838: 0.78 mg/L (≈ 0.737 µM)
P. aeruginosa ATCC 27853
  MIC P. aeruginosa ATCC 27853: 2 mg/L (≈ 1.89 µM)
A. baumannii GN_093 PmxR
  MIC A. baumannii GN_093 PmxR: 8 mg/L (≈ 7.56 µM)
E. coli ATCC 25922
  MIC E. coli ATCC 25922: 2 mg/L (≈ 1.89 µM)
[3]
  MIC K. pneumoniae GN_102 PmxR: 2 mg/L (≈ 1.89 µM)
[4]
  MIC K. pneumoniae ATCC 700603, MDR: 2 mg/L (≈ 1.89 µM)
[5]
  MIC K. pneumoniae ATCC BAA-2146, NDM-1 pos: 2 mg/L (≈ 1.89 µM)
[6]
  MIC S. aureus ATCC 25923, MSSA: 16 mg/L (≈ 15.1 µM)
[7]
  MIC P. aeruginosa GN_105, PmxR: 2 mg/L (≈ 1.89 µM)
[8]
  MIC K. pneumoniae GN_106, PmxR: 2 mg/L (≈ 1.89 µM)
A. baumannii ATCC 19606
  MIC A. baumannii ATCC 19606: 4 mg/L (≈ 3.78 µM)
[9]
  MIC P. aeruginosa GN_043, PmxR: 2 mg/L (≈ 1.89 µM)
K. pneumoniae ATCC 13883
  MIC K. pneumoniae ATCC 13883: 2 mg/L (≈ 1.89 µM)

## CCCCCCC[C@@H](O)CC(=O)N[C@H](CCN)C(=O)N[C@H]1CCNC(=O)[C@H](CC(C)C)NC(=O)[C@H](CCN)NC(=O)[C@H](CN)NC(=O)[C@H](CC(C)C)NC(=O)[C@@H](Cc2ccccc2)NC(=O)[C@H](CCN)NC1=O [compound 990, 3(R)OH-nC9CO-D-Dab-cyc[L-Dab-L-Dab-D-Phe-L-Leu-L-Dap-L-Dab-L-Leu]] ({Decanoyl(3R-OH)}-[dDab][Dab][Dab][dF]L[Dap][Dab]L; lactam 2-C)
[1]
  CC50: > 128 mg/L
[2]
  CC50: 87 mg/L (≈ 84.4 µM)
In vitro
  CC50 at 24 h: > 300 µM
P. aeruginosa ATCC 27853
  MIC, P. aeruginosa ATCC 27853: 2 mg/L (≈ 1.94 µM)
A. baumannii GN_093 PmxR
  MIC, A. baumannii Cl Ptyela 10073 4512:2, PmxR: 16 mg/L (≈ 15.5 µM)
E. coli ATCC 25922
  MIC, E. coli ATCC 25922: 4 mg/L (≈ 3.88 µM)
[3]
  MIC, K. pneumoniae Cl Koprana 10065 0661:1, PmxR: 4 mg/L (≈ 3.88 µM)
[4]
  MIC, K. pneumoniae ATCC 700603, MDR: 4 mg/L (≈ 3.88 µM)
[5]
  MIC, K. pneumoniae ATCC BAA-2146, NDM-1 pos: 4 mg/L (≈ 3.88 µM)
[6]
  MIC, S. Aureus ATCC 25923, MSSA: 32 mg/L (≈ 31.1 µM)
[7]
  MIC, P. aeruginosa PA9704, PmxR: 4 mg/L (≈ 3.88 µM)
[8]
  MIC, K. pneumoniae Cl 138-16347-20362, PmxR: 4 mg/L (≈ 3.88 µM)
A. baumannii ATCC 19606
  MIC, A. baumannii ATCC 19606: 8 mg/L (≈ 7.76 µM)
[9]; Table 5
  MIC, P. aeruginosa FADDI-PA070, PmxR: 2 mg/L (≈ 1.94 µM)
K. pneumoniae ATCC 13883
  MIC, K. pneumoniae ATCC 13883: 4 mg/L (≈ 3.88 µM)
